Read-outs that look alike come from different tables or passages of the source.
Columns and labels:
children with ADHD [1] = assay: Experiment 9: spatial WM task performance; type: in vivo, human; details: medicated vs unmedicated state; Dexedrine 20 mg, methylphenidate 10 mg
Excerpt: Experiment. Participants (a total of N=14, evenly divided between boys and girls) were referred to this study by local ADHD specialists. All participants had been diagnosed with the combined subtype of ADHD and were currently undergoing treatment with stimulant medication. Inclusion criteria include age 8-12 years, no mental retardation or neurological impairment, and full-scale IQ in the normal range as measured by the WISC-III (Wechsler, 1991). Participants were paid $10/hour for their participation, and were reimbursed for transportation costs. To increase motivation, the children were also rewarded with toys for good performance.
(§1) EEG and behavioral data were collected while the children performed low load and high load versions of the spatial WM task described above. […] Participants were tested on each of three occasions at the same time of day with a week between sessions. The first occasion was an orientation and training session in which subjects learned and practiced the tasks until performance reached asymptote. On the other occasions they were tested either while medicated or while abstaining from their normal dose of medication, with order of treatment counterbalanced across subjects. […]

children with ADHD [2] = assay: Experiment 9: EEG and ERP; type: in vivo, human
Protocol: as §1, with “subjects. A scientist not otherwise involved with the study maintained the schedule of medication and no-medication days so that the research assistant performing the testing and preliminary analyses was blind to medication status. Data from the orientation day was not included in formal analyses. On the other days subjects first performed a single 23-trial block of each of the task conditions as a warm-up procedure. They then performed 4 more 23-trial blocks of each test version in randomized order.” for “subjects.”
In each session, multi-channel EEG was recorded from multiple “10-10 System” scalp locations (bandpass 0.1-100 Hz, 256 Hz sampling rate, linked mastoid reference) using a custom-made electrode cap. EOG was recorded from above and below the left eye, and from outer canthus of each eye. […]

healthy adults [3] = assay: Experiment 1: subjective sleepiness ratings (Karolinska Sleepiness Scale); type: in vivo, human; details: 50 mg diphenhydramine, 200-mg caffeine or 0.88 g/kg ethanol, four post-treatment intervals
Protocol: (§2) Each subject participated in […] sessions. The first session was a practice session in which subjects learned to perform the working memory tasks. After training, all subjects participated in 4 sessions, separated by at least one week. […] The four drug sessions were conducted according to a double blind, placebo-controlled, randomized, counterbalanced, crossover design. In each session, subjects consumed two pills (unmarked gelatin capsules) and a mixed drink. […] The pills were given with a 500 cc drink containing either 0.88 g/kg 95% ethanol mixed in fruit juice (adequate to produce an average peak blood alcohol content (BAC) of 0.08), or containing 495 cc of fruit juice with 5 cc of alcohol floated on top to mimic the smell and taste of the treatment drink.
(§3) Each drug session involved a baseline recording before drug administration. This was followed by four post-drug recording intervals, each lasting approximately 40 minutes. The first interval began 0.5 hrs after drug ingestion; the remaining three intervals occurred hourly thereafter. A scientist not otherwise involved in the experiment administered a Breathalyzer test at the beginning of each interval. Subjects also completed the Karolinska and Stanford sleepiness scales at each test period.

[4] = average
Protocol: as §2, §3

healthy adults [5] = assay: Experiment 1: n-back working memory task performance; type: in vivo, human; details: for Accuracy in working memory task vs placebo / Reaction time in working memory task vs placebo: low load and high load tasks
Excerpt: Subjects performed two difficulty levels of a continuous performance, n-back working memory task, versions of which we have employed in many other EEG studies. In this task, subjects were required to compare the spatial location of the current stimulus with that of one presented previously. Briefly, single capital letter stimuli, drawn randomly from a set of twelve, were presented for 200 msec once every 4.5 sec on a computer monitor. At 1.3 sec prior to stimulus onset, a warning cue (a small “x”) appeared in the center of the screen for 200 msec. The letter stimulus occurred 1.3 sec after the cue in one of twelve possible locations on the monitor. The identity of the letter and its spatial position varied randomly from trial to trial. A small fixation dot was continuously present at the center of the screen. In a low load version of the task, subjects were required to match the position of the current stimulus with the position of the very first stimulus presented in the block. In a high load version of the task, subjects compared the current stimulus with that presented two trials previously. In this version subjects were required to remember two positions (and their sequential order) for the duration of two trials (nine seconds), and to update that information on each subsequent trial. In both versions of the task, stimuli were presented in blocks of 53 trials (the first three trials were warm-up trials and were discarded from analysis). Matches occurred randomly on 50% of the trials. Subjects were instructed to respond as quickly and as accurately as possible.
as §2, §3
(§4) EEG was continuously recorded from 28 scalp electrodes using a digitally linked-mastoids reference. EOG was recorded from electrodes placed above and below one eye, and at the other canthi of each eye. Physiological signals were band-pass filtered at 0.01 to 100 Hz and sampled at 256 Hz. Automated artifact detection was followed by application of adaptive eye contaminant removal filters. The data were then visually inspected and data segments containing possible residual artifacts were eliminated from subsequent analyses. To examine the effects of the pharmacological interventions on individual EEG or behavioral variables, univariate repeated measures analyses of variance (ANOVAs) were used to compare data from each of the three treatment conditions with the placebo condition.

healthy adults [6] = details: for Delta band power during resting conditions vs placebo / Theta band power during resting conditions vs placebo: both resting conditions; for Parietal alpha during task performance vs placebo: both task conditions
Protocol: as §3, §4
For neurophysiological features, average power was extracted from individual spectral bands at individual electrode sites, and then compared across test conditions. Decisions as to which parameters to extract from the spectra were based on the results of prior studies. For the task related EEG, past studies indicate that the frontal midline theta rhythm and the parietal alpha rhythm are sensitive to variations in the attentional demands of tasks, and, in particular, to the increase in difficulty in the working memory tasks employed here. For the EEG recorded under passive resting conditions, past studies indicate that activity in the delta and theta bands at posterior sites, and the alpha rhythm measured over the occipital region, are highly sensitive to variations in alertness and arousal. Each of the individual features was compared between placebo and each drug condition in univariate ANOVAs with repeated measures.

healthy adults [7] = assay: Experiment 2: Neurocognitive Function Change (NCFC) index; type: in vivo, human; details: for NCFC index change from pre-medication baseline: 16 subjects, t1-t4
Excerpt: In this hybrid approach, multiple if-then rules gleaned from expert knowledge are applied to data to produce many low-level decisions about the direction of a change between two states. These local decisions are made with respect to single data parameters and the output of these rule-based functions serve as the inputs to a combinatorial network that in turn produces a single summary index of the direction and magnitude of change of neurocognitive function from a baseline state to a test state. As with a knowledgeable human expert assessing an ambiguous problem, decisions about the direction and severity of a change are based on consideration of a variety of pieces of diagnostic evidence, no one of which is central to the overall decision.
The output from the algorithm is the composite of three sub indices. The Behavioral Performance sub index incorporates measures of psychomotor speed and accuracy during task performance. The Neurophysiological Cognitive sub index incorporates attention-related EEG variables recorded during task performance (e.g. parameters of attention-related ERP components such as P300 and spectral measures of task load-related EEG modulation). The Neurophysiological Alertness sub index incorporates alertness-related physiological variables (e.g. measures of low frequency EEG activity and slow, rolling eye movement activity) recorded during passive resting conditions. The composite Neurocognitive Function Change (NCFC) index provides a summary score indicating direction and degree of change in neurocognitive status from a baseline state. In FIG. 6, each time point reflects change from the pre-medication baseline at t0 . […] In addition to the summary NCFC score presented in FIG. 6, consideration of the output of the sub indices can also provide specific information concerning the manner in which neurocognitive function has changed from baseline. […]

healthy elderly subjects [8] = assay: Experiment 8: resting and task-related EEG and ERP in elderly; type: in vivo, human
healthy elderly subjects [9] = assay: Experiment 8: WM and ITM task performance in elderly; type: in vivo, human
healthy elderly subjects [10] = assay: Experiment 8: subjective sleepiness in elderly (Karolinska sleepiness scale)

SMILES	Working memory task performance in an individual subject (children with ADHD [1])	Subjective sleepiness relative to placebo (healthy adults [3])	Accuracy in working memory task vs placebo (healthy adults [5])	Reaction time in working memory task vs placebo (healthy adults [5])	Frontal midline theta rhythm during task performance vs placebo (healthy adults [6])	Direction of significant (p < .05) change in spectral power (vs. placebo): Oz alpha (healthy adults [6]; Resting EEG Eyes Closed)	Direction of significant (p < .05) change in spectral power (vs. placebo): Pz delta (healthy adults [6]; Resting EEG Eyes Closed)	Direction of significant (p < .05) change in spectral power (vs. placebo): Pz theta (healthy adults [6]; Resting EEG Eyes Closed)	Direction of significant (p < .05) change in spectral power (vs. placebo): Oz alpha (healthy adults [6]; Resting EEG Eyes Open)	Direction of significant (p < .05) change in spectral power (vs. placebo): Pz delta (healthy adults [6]; Resting EEG Eyes Open)	Direction of significant (p < .05) change in spectral power (vs. placebo): Pz theta (healthy adults [6]; Resting EEG Eyes Open)	Direction of significant (p < .05) change in spectral power (vs. placebo): Pz alpha (healthy adults [6]; Task EEG High Load)	Direction of significant (p < .05) change in spectral power (vs. placebo): aFz theta (healthy adults [6]; Task EEG High Load)	Direction of significant (p < .05) change in spectral power (vs. placebo): Pz alpha (healthy adults [6]; Task EEG Low Load)	Direction of significant (p < .05) change in spectral power (vs. placebo): aFz theta (healthy adults [6]; Task EEG Low Load)	Delta band power during resting conditions vs placebo (healthy adults [6])	Theta band power during resting conditions vs placebo (healthy adults [6])	Parietal alpha during task performance vs placebo (healthy adults [6])	NCFC index change from pre-medication baseline (healthy adults [7])	other results
C[C@H](N)Cc1ccccc1 [Dexedrine]	markedly better in the medicated state																			Alpha rhythm, high load vs low load, in an individual subject (children with ADHD [2]; Dexedrine 20 mg): larger difficulty-related differences
CCO [alcohol, ethanol]		significant increase in subjective sleepiness relative to placebo at the 1.5-2 hr, 2.5-3 hr and 3.5-4 hr post-treatment intervals	no significant main effects	slightly faster in the high load task, and slightly slower in the low load task	increased in the amplitude	▬	▴	▴	▬	▴	▴	▴	▴	▴	▴	increased the power	increased the power	increased in the amplitude	similar, though less extreme, pattern of impairment	peak BAC ([4]; first post-treatment interval): 0.08; BAC ([4]; last post-treatment interval): 0.03; NCFC sub index most affected (healthy adults [7]; in vivo): relative greater effect on the Neurophysiological Attention sub index
Cn1c(=O)c2c(ncn2C)n(C)c1=O [caffeine]		did not produce subjective sleepiness ratings significantly different from placebo	No significant behavioral differences	No significant behavioral differences		▬	▬	▬	▬	▬	▬	▾	▬	▾	▬			significant reduction in alpha band power at parietal sites	little change from baseline	Resting EEG data relative to placebo (healthy adults [6]): did not produce significant differences in resting EEG data relative to placebo
CN(C)CCOC(c1ccccc1)c1ccccc1 [diphenhydramine]			less accurately	significantly more slowly	reduction in power for the frontal midline theta rhythm in the high load task only											increase in power in the delta	trend towards increasing			Time of nadir of task performance (healthy adults [5]; post drug, third post-ingestion interval): 2.5 to 3 h; Alpha band power, eyes-closed resting condition vs placebo (healthy adults [6]): attenuation of power in the alpha band in the eyes-closed resting condition; Alpha band power, eyes-open resting condition vs placebo (healthy adults [6]): no significant change in power during the eyes-open resting condition; Slow eye movement activity during resting conditions (healthy adults [6]; discussion): increase in the incidence of slow eye movement activity; Amplitude of posterior P200 in ITM task (healthy elderly subjects [8]): larger after diphenhydramine ingestion than after placebo ingestion; N160 and P350 ERP in WM task (healthy elderly subjects [8]; low and high load tasks): significantly smaller following diphenhydramine ingestion than placebo; Resting EEG delta and theta power (healthy elderly subjects [8]; posterior regions): increase in power in the delta and theta bands over posterior regions; ITM task RT and word recognition accuracy (healthy elderly subjects [9]): did not show significant effects of diphenhydramine; WM task performance (healthy elderly subjects [9]): did not significantly affect task performance; Time of greatest subjective sleepiness (healthy elderly subjects [10]; after ingestion): 2.5 h; Subjective sleepiness vs placebo (healthy elderly subjects [10]; elderly, 50 mg): significantly sleepier
COC(=O)C(c1ccccc1)C1CCCCN1 (stereo not drawn) [methylphenidate]	markedly better in the medicated state																			P300 amplitude in an individual subject (children with ADHD [2]; methylphenidate 10 mg): larger in the medicated condition

Reference: patent US6947790B2, “Neurocognitive function EEG measurement method and system” (priority 2000, dated 2005)
